Test results from patent publication US10597542B2, “Methods of applying active components” (HONEYWELL INTERNATIONAL INC., priority 2011, dated 2020).

Experiment: Solubility of material samples covered with tr-1233zd or cis-1233zd in vials (Examples 8-13)
Conditions: for Amount of heparin dissolved: remained clear overnight
From the text: (§1) Test samples of commercial acrylic plastic sheet cut into ¼″×2″ piece were placed into 20 cc vials with septum screw cap. Solvents (tr-1233zd & cis-1233zd) were slowly added by a syringe to cover the entire plastic sample inside the vial. The purpose was to observe if any degradation happens to the plastic.
as §1, with “high impact styrene” for “acrylic”
Test samples of commercial acrylonitrile-butadiene-styrene (ABS) sheet cut into ¼″×2″ piece were placed into 20 cc vials with septum screw cap. Solvents (tr-1233zd & cis-1233zd) were slowly added by a syringe to cover the entire plastic sample inside the vial.
The experiment in Example 8 is repeated with commercial polycarbonate material.
The experiment of Example 8 was repeated with commercial Dow Polaroid™ Au-608-B acrylic material. This material is used in various coatings.
The experiment of Example 8 was repeated with blood anti-coagulant material Heparin, which is used as a coating in medical devices.

Q: For Heparin, which “Solubility / effect of solvent on the material” value is on record?
A: None of the solvents could dissolve the material

Q: What about the “Amount of heparin dissolved” value (cis-1233zd with 2 wt % methanol) of the same substance?
A: 1.19 wt %

Q: And the “Amount of heparin dissolved” value (tr-1233zd with 2 wt % methanol)?
A: 0.794 wt %
